Common to all, as to format: cell-based
The target in assay [1] is T1, BRAF G466V (Homo sapiens, UniProt P15056, G466V).
T1 construct: Horizon Discovery (HCT-116 BRAF−/− cells); host or cells: HCT-116 BRAF−/− cells, clone 8, lentiviral transduction
Briefly: BRAF HiBiT degradation assay, C-terminal HiBiT-tagged BRAF G466V overexpressed in HCT-116 BRAF−/− cells (clone 8), Nano-Glo HiBiT Lytic assay. The method, boiled down:
(§1)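 Luminescence from the lytic HiBiT reagent, read after 10 min at room temperature, measured tagged BRAF remaining in lentivirally transduced HCT-116 BRAF−/− cells. Compounds were tested from 1 μM to 0.01 nM in half-log steps at 0.2% DMSO. DC50 values were fitted at 50% remaining.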
(The HiBiT peptide binds its large partner to form an active luciferase.)

For assay [2], the target named is T2, BRAF G469A (Homo sapiens, UniProt P15056, G469A).
T2 construct: Horizon Discovery (HCT-116 BRAF−/− cells); host or cells: HCT-116 BRAF−/− cells, clone 34, lentiviral transduction
Briefly: BRAF HiBiT degradation assay, C-terminal HiBiT-tagged BRAF G469A overexpressed in HCT-116 BRAF−/− cells (clone 34), Nano-Glo HiBiT Lytic assay. The method, boiled down:
as §1

Assay [3] deals with T3, BRAF D594G (Homo sapiens, UniProt P15056, D594G).
T3 construct: Horizon Discovery (HCT-116 BRAF−/− cells); host or cells: HCT-116 BRAF−/− cells, clone 63, lentiviral transduction
Briefly: BRAF HiBiT degradation assay, C-terminal HiBiT-tagged BRAF D594G overexpressed in HCT-116 BRAF−/− cells (clone 63), Nano-Glo HiBiT Lytic assay. The procedure, abridged:
as §1

In assay [4] the target is T4, BRAF V600E (Homo sapiens, UniProt P15056, V600E).
T4 construct: endogenous C-terminal HiBiT fusion tag on BRAF V600E allele; endogenous in cells; host or cells: A375 clone 1F10 (CRISPR-Cas9 knock-in of the HiBiT tag; parental A375 from ATCC)
Briefly: BRAF HiBiT degradation assay, C-terminal HiBiT-tagged BRAF V600E A375 cells (clone 1F10), Nano-Glo HiBiT Lytic assay. To be noted: for Dmax: A-375. The method, boiled down:
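Endogenous BRAF V600E-HiBiT A375 (1F10), 10,000 cells/well, 24 h preculture; cpd 11-pt, 1 μM–0.01 nM half-log, n=2, 0.2% DMSO; HiBiT lytic detection 10 min RT; DC50 = fitted conc at Y=50; Obs. Dmax vs DMSO.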

[5] abbreviates: BRAF G466V (Class 3), HCT-116 BRAF−/− cells, DC50 at 50% degradation.
The mark [6] stands for this setting: BRAF G466V (Class 3), HCT-116 BRAF−/− cells, observed Dmax relative to DMSO control.
The mark [7] stands for this setting: BRAF G469A (Class 2), HCT-116 BRAF−/− cells, DC50 at 50% degradation.
Setting [8] is: BRAF G469A (Class 2), HCT-116 BRAF−/− cells, observed Dmax relative to DMSO control.
Where [9] appears, read: BRAF D594G (Class 3), HCT-116 BRAF−/− cells, DC50 at 50% degradation.
The mark [10] stands for this setting: BRAF D594G (Class 3), HCT-116 BRAF−/− cells, observed Dmax relative to DMSO control.
Setting [11] is: A375 (BRAF V600E, Class 1), DC50 at 50% degradation.
Setting [12] is: A375 (BRAF V600E, Class 1), observed Dmax, % protein degraded relative to DMSO control.
[13] abbreviates: BRAF G466V, DC50 at 50%: fitted conc. at Y=50.
The mark [14] stands for this setting: HCT-116, BRAF G466V, percentage protein degraded at maximal compound effect relative to DMSO.
[15] abbreviates: Class 2, BRAF G469A, DC50 at 50%: fitted conc. at Y=50.
[16] abbreviates: HCT-116, Class 2, BRAF G469A, percentage protein degraded at maximal compound effect relative to DMSO.
The mark [17] stands for this setting: BRAF D594G, DC50 at 50%: fitted conc. at Y=50.
Setting [18] is: HCT-116, BRAF D594G, percentage protein degraded at maximal compound effect relative to DMSO.
[19] abbreviates: A375 (BRAF V600E), DC50 at 50%: fitted conc. at Y=50.
Where [20] appears, read: A375 (BRAF V600E), percentage protein degraded at maximal compound effect relative to DMSO.

Bounds are passed on as bounds.

T4 sequence (P15056 whole entry V600E, the tested form may be a part): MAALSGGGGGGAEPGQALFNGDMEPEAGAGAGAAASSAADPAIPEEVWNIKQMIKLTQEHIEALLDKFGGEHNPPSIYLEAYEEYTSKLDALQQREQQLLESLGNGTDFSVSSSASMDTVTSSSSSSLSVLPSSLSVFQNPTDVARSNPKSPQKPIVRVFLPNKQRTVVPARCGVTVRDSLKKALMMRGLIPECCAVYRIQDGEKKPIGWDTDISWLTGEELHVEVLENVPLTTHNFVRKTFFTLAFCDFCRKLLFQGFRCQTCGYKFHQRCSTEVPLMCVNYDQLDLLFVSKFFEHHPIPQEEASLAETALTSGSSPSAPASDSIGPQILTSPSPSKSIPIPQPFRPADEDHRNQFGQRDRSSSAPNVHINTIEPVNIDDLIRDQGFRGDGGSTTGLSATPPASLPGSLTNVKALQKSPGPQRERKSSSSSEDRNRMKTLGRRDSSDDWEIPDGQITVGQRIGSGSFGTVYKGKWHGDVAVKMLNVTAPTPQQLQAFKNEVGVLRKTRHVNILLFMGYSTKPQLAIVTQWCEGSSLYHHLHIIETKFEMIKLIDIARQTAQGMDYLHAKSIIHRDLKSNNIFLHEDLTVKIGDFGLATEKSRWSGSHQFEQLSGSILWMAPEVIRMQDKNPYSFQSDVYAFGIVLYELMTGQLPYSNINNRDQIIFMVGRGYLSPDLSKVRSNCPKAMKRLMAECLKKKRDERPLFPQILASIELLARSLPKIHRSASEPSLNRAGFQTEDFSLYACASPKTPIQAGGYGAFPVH
T1 sequence (P15056 whole entry G466V): as the sequence (P15056 whole entry V600E, the tested form may be a part) above, with G466V, E600V counted along it
T2 sequence (P15056 whole entry G469A): as the sequence (P15056 whole entry V600E, the tested form may be a part) above, with G469A, E600V counted along it
T3 sequence (P15056 whole entry D594G): as the sequence (P15056 whole entry V600E, the tested form may be a part) above, with D594G, E600V counted along it

Usually DC50 stands for the concentration giving 50% degradation. The low end stands for degradation at low concentration, the high end for degradation only at high concentration. The term Dmax denotes the largest share of the target that was removed. Low values mean shallow degradation, high ones deep degradation. As to `O=C1CCC(c2ccc(N3CCC(CN4CCN(c5ccc(-n6cc(-c7cc(Cl)cc(NS(=O)(=O)N8CC(F)C8)c7F)c(-c7ccncc7)n6)cc5)CC4)CC3)nc2)C(=O)N1` (racemic) [Compound 332, Rac-N-{5-chloro-3-[1-(4-{4-[(1-{5-[(3R)-2,6-dioxopiperidin-3-yl]pyridin-2-yl}piperidin-4-yl)methyl]piperazin-1-yl}phenyl)-3-(pyridin-4-yl)-1H-pyrazol-4-yl]-2-fluorophenyl}-3-fluoroazetidine-1-sulfonamide], the DC50 in assay [1] (setting [5]), in assay [2] (setting [7]), in assay [3] (setting [9]) and in assay [4] (setting [11]) was under 10 nM in each case. Also, the Dmax was over 70% in assay [1] (setting [6]), over 70% in assay [2] (setting [8]), 30 to 70% in assay [3] (setting [10]) and over 70% in assay [4] (setting [12]).
For the compound `CCN(C)S(=O)(=O)Nc1cc(F)cc(-c2cn(-c3ccc(N4CCN(CC5CCN(c6ccc([C@H]7CCC(=O)NC7=O)cc6)CC5)CC4)cc3)nc2-c2ccncc2)c1F` [Compound 377, (3R)-3-(4-{4-[(4-{4-[4-(3-{[ethyl(methyl)sulfamoyl]amino}-2,5-difluorophenyl)-3-(pyridin-4-yl)-1H-pyrazol-1-yl]phenyl}piperazin-1-yl)methyl]piperidin-1-yl}phenyl)piperidine-2,6-dione], the DC50 is 10 to 50 nM in assay [1] (setting [5]), under 10 nM in assay [2] (setting [7]), 10 to 50 nM in assay [3] (setting [9]) and 10 to 50 nM in assay [4] (setting [11]). For the same compound, the greatest degradation seen (Dmax) in assay [1] (setting [6]) was over 70%; in assay [2] (setting [8]), 30 to 70%; in assay [3] (setting [10]), 30 to 70%; in assay [4] (setting [12]), over 70%.
As to `CCCS(=O)(=O)Nc1cccc(-c2nc(-c3ccc(C4CCN(CC5CCN(c6ccc([C@@H]7CCC(=O)NC7=O)cc6)CC5)CC4)cc3)sc2-c2ccnc(N)n2)c1F` [Compound 192, N-{3-[5-(2-aminopyrimidin-4-yl)-2-(4-{1-[(1-{4-[(3S)-2,6-dioxopiperidin-3-yl]phenyl}piperidin-4-yl)methyl]piperidin-4-yl}phenyl)-1,3-thiazol-4-yl]-2-fluorophenyl}propane-1-sulfonamide], the DC50 was over 500 nM in assay [1] (setting [13]), over 500 nM in assay [2] (setting [15]), over 500 nM in assay [3] (setting [17]) and 10 to 50 nM in assay [4] (setting [19]). Also, the Dmax in assay [1] (setting [14]) is 30 to 70%; in assay [2] (setting [16]) it was under 30%; in assay [3] (setting [18]), 30 to 70%; in assay [4] (setting [20]), over 70%.
As to `O=C1CCC(c2ccc(N3CCC(CN4CCN(c5ccc(-n6cc(-c7cc(Cl)cc(NS(=O)(=O)N8CCCC8)c7F)c(-c7ccncc7)n6)nc5)CC4)CC3)nc2)C(=O)N1` (racemic) [Compound 288, Rac-N-{5-chloro-3-[1-(5-{4-[(1-{5-[(3R)-2,6-dioxopiperidin-3-yl]pyridin-2-yl}piperidin-4-yl)methyl]piperazin-1-yl}pyridin-2-yl)-3-(pyridin-4-yl)-1H-pyrazol-4-yl]-2-fluorophenyl}pyrrolidine-1-sulfonamide], the 50% degradation concentration (DC50) in assay [1] (setting [5]), in assay [2] (setting [7]), in assay [3] (setting [9]) and in assay [4] (setting [11]) was under 10 nM in each case. For the same compound, the Dmax in assay [1] (setting [6]), in assay [2] (setting [8]), in assay [3] (setting [10]) and in assay [4] (setting [12]) was over 70% each time.
With `CCCS(=O)(=O)Nc1cccc(-c2nc(C(C)(C)C)sc2-c2ccnc(Nc3cccc(OC4CCN(C(=O)CN5CCC(c6ccc(NC7CCC(=O)NC7=O)cc6)CC5)CC4)c3)n2)c1F` (racemic) [Compound 96, Rac-N-(3-{2-tert-butyl-5-[2-({3-[(1-{2-[4-(4-{[(3R)-2,6-dioxopiperidin-3-yl]amino}phenyl)piperidin-1-yl]acetyl}piperidin-4-yl)oxy]phenyl}amino)pyrimidin-4-yl]-1,3-thiazol-4-yl}-2-fluorophenyl)propane-1-sulfonamide], the 50% degradation concentration (DC50) in assay [1] (setting [13]) was over 500 nM; in assay [2] (setting [15]), over 500 nM; in assay [3] (setting [17]), over 500 nM; in assay [4] (setting [19]), 10 to 50 nM. The Dmax in assay [1] (setting [14]) is 30 to 70%; in assay [2] (setting [16]), 30 to 70%; in assay [3] (setting [18]) it was 30 to 70%; in assay [4] (setting [20]), over 70%.
Consider `CCCS(=O)(=O)Nc1cccc(-c2nc(C(C)(C)C)sc2-c2ccnc(Nc3cnn(C4CCN(C(=O)CN5CCC(c6ccc(NC7CCC(=O)NC7=O)cc6)CC5)CC4)c3)n2)c1F` (racemic) [Compound 108, Rac-N-{3-[2-tert-butyl-5-(2-{[1-(1-{2-[4-(4-{[(3R)-2,6-dioxopiperidin-3-yl]amino}phenyl)piperidin-1-yl]acetyl}piperidin-4-yl)-1H-pyrazol-4-yl]amino}pyrimidin-4-yl)-1,3-thiazol-4-yl]-2-fluorophenyl}propane-1-sulfonamide], for which the DC50 in assay [1] (setting [13]) was over 500 nM; in assay [2] (setting [15]), over 500 nM; in assay [3] (setting [17]), over 500 nM; in assay [4] (setting [19]) it was under 10 nM. Further, the Dmax is under 30% in assay [1] (setting [14]), under 30% in assay [2] (setting [16]), 30 to 70% in assay [3] (setting [18]) and over 70% in assay [4] (setting [20]).
With `CCCS(=O)(=O)Nc1cccc(-c2nc(C(C)(C)C)sc2-c2ccnc(NC3CC4(C3)CN(C(=O)C3(F)CCN(CC5CCN(c6ccc(C7CCC(=O)NC7=O)cc6)CC5)CC3)C4)n2)c1F` (racemic) [Compound 141, Rac-N-[3-(2-tert-butyl-5-{2-[(2-{1-[(1-{4-[(3R)-2,6-dioxopiperidin-3-yl]phenyl}piperidin-4-yl)methyl]-4-fluoropiperidine-4-carbonyl}-2-azaspiro[3.3]heptan-6-yl)amino]pyrimidin-4-yl}-1,3-thiazol-4-yl)-2-fluorophenyl]propane-1-sulfonamide], the half-maximal degradation concentration (DC50) was over 500 nM in assay [1] (setting [13]), over 500 nM in assay [2] (setting [15]), over 500 nM in assay [3] (setting [17]) and 10 to 50 nM in assay [4] (setting [19]). Further, the Dmax was under 30% in assay [1] (setting [14]), under 30% in assay [2] (setting [16]), under 30% in assay [3] (setting [18]) and over 70% in assay [4] (setting [20]).
Take `CCCS(=O)(=O)Nc1cccc(-c2nc(C)sc2-c2ccnc(Nc3ccc(N4CCN(CC5CCN(c6ccc(C7CCC(=O)NC7=O)cn6)CC5)CC4)cn3)n2)c1F` (racemic) [Compound 62, Rac-N-[3-(5-{2-[(5-{4-[(1-{5-[(3R)-2,6-dioxopiperidin-3-yl]pyridin-2-yl}piperidin-4-yl)methyl]piperazin-1-yl}pyridin-2-yl)amino]pyrimidin-4-yl}-2-methyl-1,3-thiazol-4-yl)-2-fluorophenyl]propane-1-sulfonamide]: the half-maximal degradation concentration (DC50) is 10 to 50 nM in assay [1] (setting [13]), under 10 nM in assay [2] (setting [15]), over 500 nM in assay [3] (setting [17]) and under 10 nM in assay [4] (setting [19]). Further, the Dmax in assay [1] (setting [14]) is 30 to 70%; in assay [2] (setting [16]), 30 to 70%; in assay [3] (setting [18]), 30 to 70%; in assay [4] (setting [20]), over 70%.
Take `O=C1CC[C@H](c2ccc(N3CCC(CN4CCCN(c5ccc(-n6cc(-c7cc(Cl)cc(NS(=O)(=O)N8CCCC8)c7F)c(-c7ccncc7)n6)c(F)c5)CC4)CC3)cc2)C(=O)N1` [Compound 346, N-{5-chloro-3-[1-(4-{4-[(1-{4-[(3R)-2,6-dioxopiperidin-3-yl]phenyl}piperidin-4-yl)methyl]-1,4-diazepan-1-yl}-2-fluorophenyl)-3-(pyridin-4-yl)-1H-pyrazol-4-yl]-2-fluorophenyl}pyrrolidine-1-sulfonamide]: the DC50 in assay [1] (setting [5]) was over 500 nM; in assay [2] (setting [7]) it was over 500 nM; in assay [3] (setting [9]), over 500 nM; in assay [4] (setting [11]), under 10 nM. The maximal degradation (Dmax) is 30 to 70% in assay [1] (setting [6]), under 30% in assay [2] (setting [8]), under 30% in assay [3] (setting [10]) and over 70% in assay [4] (setting [12]).

The values are drawn from patent US20260317324A1, “BIFUNCTIONAL COMPOUNDS FOR DEGRADING BRAF VIA UBIQUITIN PROTEOSOME PATHWAY” (Nurix Therapeutics, Inc., priority 2023, published 2026).
